The values below are quoted from earlier work in patent publication US20180028591A1, “MALE AND FEMALE INFERTILITY HERBAL COMPOSITION” (priority 2016, published 2018).

The data set relates to rabbit penile tissue. The note with it: by nitric oxide and PDE5 activity.

Structures are written as SMILES.

For the compound `COc1ccc(-c2oc3c(CC=C(C)C)c(O[C@@H]4O[C@H](CO)[C@@H](O)[C@H](O)[C@H]4O)cc(O)c3c(=O)c2O[C@@H]2O[C@@H](C)[C@H](O)[C@@H](O)[C@H]2O)cc1` [icariin], the “relaxation of penile tissue” value was “relax rabbit penile tissue”.
